Measurements: patent US8952024B2, “Herbicidal pyrimidone derivatives” (E I du Pont de Nemours and Company, priority 2009, dated 2015)

Key:
Type in all cases: in vivo
rice (Oryza sativa) = assay: Test B flooded paddy test; conditions: for Plant response rating, Flood, Rice: 250 g ai/ha, flooded paddy test, visual rating on 0 to 100 scale (0 no effect, 100 complete control) after 13 to 15 days; for Plant response rating, Rice: Flood (flooded paddy test), 13 to 15 days
How it was run: (§1)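 Greenhouse-held for 13 to 15 days, treated pots were compared visually with controls and scored 0–100 (0, no effect). Treatment had been made into paddy water kept at 3 cm above the soil, with plants at the 2-leaf stage.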

[1] = system: ducksalad (Heteranthera limosa); assay: Test B flooded paddy test; conditions: for Plant response rating, Flood, Ducksalad: 250 g ai/ha, flooded paddy test, visual rating on 0 to 100 scale (0 no effect, 100 complete control) after 13 to 15 days; for Plant response rating, Ducksalad: Flood (flooded paddy test), 13 to 15 days
How it was run: as §1

[2] = system: canarygrass (Phalaris minor); assay: Test B postemergence plant response; conditions: Postemergence
How it was run: (§2)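 Plants grown in peat/vermiculite medium were sprayed postemergence at 2–18 cm height (1- to 4-leaf stage). After 13–15 days in the greenhouse, response was rated visually against untreated controls on a 0–100 scale (0 no effect, 100 complete control).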

[3] = system: windgrass (Apera spica-venti); assay: Test B postemergence plant response; conditions: Postemergence
How it was run: as §2

[4] = system: chickweed (Stellaria media); assay: Test B postemergence plant response; conditions: Postemergence
How it was run: as §2

[5] = system: giant foxtail (Setaria faberii); assay: Test A pre-/postemergence plant response
How it was run: (§3)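 Both pre- and postemergence treatments are applied simultaneously, using chemicals formulated in a non-phytotoxic solvent mixture with surfactant. Postemergence plants are 2–10 cm high with one to two leaves. After approximately ten days in a greenhouse, injury is scored visually from 0 (none) to 100 (complete control) relative to untreated plants.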

[6] = system: large crabgrass (Digitaria sanguinalis); assay: Test A pre-/postemergence plant response
How it was run: as §3

[7] = system: pigweed (Amaranthus retroflexus); assay: Test A pre-/postemergence plant response
How it was run: as §3

corn (Zea mays) = assay: Test A pre-/postemergence plant response
How it was run: as §3

[8] = system: wheat (Triticum aestivum); assay: Test A pre-/postemergence plant response
How it was run: as §3

[9] = system: velvetleaf (Abutilon theophrasti); assay: Test A pre-/postemergence plant response
How it was run: as §3

[10] = system: barnyardgrass (Echinochloa crus-galli); assay: Test A pre-/postemergence plant response
How it was run: as §3

[11] = system: morningglory (Ipomoea spp.); assay: Test A pre-/postemergence plant response
How it was run: as §3

[12] = 31 g ai/ha, scale of 0 to 100 where 0 is no effect and 100 is complete control
[13] = 62 g ai/ha, scale 0 to 100, 0 is no effect, 100 is complete control
[14] = 125 g ai/ha, scale 0 to 100, 0 is no effect, 100 is complete control
[15] = 31 g ai/ha, scale 0 to 100 (0 no effect, 100 complete control)
[16] = 62 g ai/ha, scale 0 (no effect) to 100 (complete control), 13 to 15 days
[17] = 125 g ai/ha, visual rating after 13 to 15 days, scale 0 (no effect) to 100 (complete control)
[18] = Postemergence, 125 g ai/ha, visual injury, 0 to 100 scale (0 no effect, 100 complete control), approx. ten days
[19] = Postemergence, 500 g ai/ha, 0 to 100 scale, 0 = no effect, 100 = complete control, approx. ten days
[20] = Preemergence, 125 g ai/ha, 0 to 100 scale, 0 = no effect, 100 = complete control
[21] = Preemergence, 500 g ai/ha, visual injury, 0 to 100 scale (0 no effect, 100 complete control), approx. ten days
[22] = 62 g ai/ha, scale of 0 to 100 where 0 is no effect and 100 is complete control
[23] = Flood, 31 g ai/ha, scale 0 to 100 (0 no effect, 100 complete control)
[24] = 31 g ai/ha, 0 to 100 scale (0 no effect, 100 complete control)
[25] = 62 g ai/ha, scale 0 to 100 (0 no effect, 100 complete control)
[26] = 125 g ai/ha, scale 0 to 100 (0 no effect, 100 complete control)
[27] = 250 g ai/ha, scale 0 to 100 (0 no effect, 100 complete control), 13 to 15 days
[28] = Postemergence, 125 g ai/ha, 0 to 100 scale where 0 is no effect and 100 is complete control
[29] = Postemergence, 500 g ai/ha, visual injury, 0 to 100 scale (0 no effect, 100 complete control), approx. ten days
[30] = Preemergence, 500 g ai/ha, 0 to 100 scale, 0 = no effect, 100 = complete control

Cc1ccccc1-n1c(-c2cccc(Cl)c2)ncc(C(=O)C2=C(O)CCCC2=O)c1=O [Compound 36]
90: Pigweed plant response rating [7, 18] | Barnyardgrass plant response rating [10, 18]
60: Plant response rating, Foxtail, Giant [5, 21] | Plant response rating, Corn (corn (Zea mays); [19]) | Plant response rating, Velvetleaf [9, 20]
100: Plant response rating, Chickweed [4, 17] | Chickweed plant response rating ([4]; 250 g ai/ha, scale 0 to 100) | Plant response rating, Foxtail, Giant [5, 19] | Plant response rating, Crabgrass, Large [6, 19] | Plant response rating, Pigweed [7, 19] | Velvetleaf plant response rating [9, 18] | Plant response rating, Velvetleaf [9, 19] | Plant response rating, Velvetleaf [9, 21] | Plant response rating, Barnyardgrass [10, 19] | Plant response rating, Morningglory [11, 19]
85: Plant response rating, Chickweed [4, 15]
40: Plant response rating, Flood, Ducksalad [1] | Plant response rating, Canarygrass [2, 15]
0: Plant response rating, Rice (rice (Oryza sativa); [12]) | Plant response rating, Rice (rice (Oryza sativa); [13]) | Plant response rating, Ducksalad [1, 12] | Plant response rating, Ducksalad [1, 13] | Plant response rating, Ducksalad [1, 14] | Plant response rating, Pigweed [7, 20] | Corn plant response rating (corn (Zea mays); [18]) | Plant response rating, Corn (corn (Zea mays); [20]) | Plant response rating, Corn (corn (Zea mays); [21]) | Wheat plant response rating [8, 18] | Plant response rating, Wheat [8, 19] | Plant response rating, Wheat [8, 20] | Plant response rating, Morningglory [11, 20]
35: Plant response rating, Flood, Rice (rice (Oryza sativa))
98: Plant response rating, Chickweed [4, 16]
30: Plant response rating, Morningglory [11, 21]
20: Plant response rating, Rice (rice (Oryza sativa); [14]) | Plant response rating, Wheat [8, 21]
50: Plant response rating, Canarygrass [2, 17] | Canarygrass plant response rating ([2]; 250 g ai/ha, scale 0 to 100) | Plant response rating, Barnyardgrass [10, 21] | Morningglory plant response rating [11, 18]
70: Plant response rating, Windgrass [3, 16]
80: Plant response rating, Windgrass [3, 17] | Foxtail, Giant plant response rating [5, 18] | Crabgrass, Large plant response rating [6, 18] | Plant response rating, Crabgrass, Large [6, 21] | Plant response rating, Pigweed [7, 21]
45: Plant response rating, Canarygrass [2, 16]
10: Plant response rating, Foxtail, Giant [5, 20] | Plant response rating, Crabgrass, Large [6, 20] | Plant response rating, Barnyardgrass [10, 20]

CCc1ccc(-n2c(-c3ccccc3)ncc(C(=O)C3=C(O)CCCC3=O)c2=O)cc1 [Compound 219]
80: Plant response rating, Foxtail, Giant [5, 30] | Plant response rating, Crabgrass, Large [6, 28] | Plant response rating, Morningglory [11, 30]
30: Corn plant response rating (corn (Zea mays); [29]) | Wheat plant response rating [8, 29] | Plant response rating, Velvetleaf [9, 20]
55: Plant response rating, Canarygrass [2, 25] | Plant response rating, Canarygrass [2, 26] | Plant response rating, Canarygrass [2, 27]
35: Plant response rating, Canarygrass [2, 24] | Plant response rating, Windgrass [3, 24]
65: Plant response rating, Ducksalad [1, 14]
20: Plant response rating, Ducksalad [1, 22] | Plant response rating, Wheat [8, 30] | Plant response rating, Morningglory [11, 20]
75: Plant response rating, Flood, Rice (rice (Oryza sativa))
90: Plant response rating, Flood, Ducksalad [1] | Foxtail, Giant plant response rating [5, 29] | Plant response rating, Pigweed [7, 20] | Plant response rating, Velvetleaf [9, 30] | Plant response rating, Barnyardgrass [10, 28] | Barnyardgrass plant response rating [10, 29]
10: Plant response rating, Foxtail, Giant [5, 20]
0: Plant response rating, Rice (rice (Oryza sativa); [22]) | Rice plant response rating (rice (Oryza sativa); [23]) | Ducksalad plant response rating [1, 23] | Plant response rating, Corn (corn (Zea mays); [28]) | Plant response rating, Corn (corn (Zea mays); [20]) | Plant response rating, Corn (corn (Zea mays); [30]) | Plant response rating, Wheat [8, 28] | Plant response rating, Wheat [8, 20]
40: Plant response rating, Windgrass [3, 25] | Plant response rating, Barnyardgrass [10, 20]
85: Plant response rating, Windgrass [3, 27]
50: Plant response rating, Foxtail, Giant [5, 28] | Plant response rating, Crabgrass, Large [6, 20]
70: Plant response rating, Rice (rice (Oryza sativa); [14])
100: Plant response rating, Chickweed [4, 24] | Plant response rating, Chickweed [4, 25] | Plant response rating, Chickweed [4, 26] | Plant response rating, Chickweed [4, 27] | Crabgrass, Large plant response rating [6, 29] | Plant response rating, Crabgrass, Large [6, 30] | Plant response rating, Pigweed [7, 28] | Pigweed plant response rating [7, 29] | Plant response rating, Pigweed [7, 30] | Plant response rating, Velvetleaf [9, 28] | Velvetleaf plant response rating [9, 29] | Plant response rating, Barnyardgrass [10, 30] | Plant response rating, Morningglory [11, 28] | Morningglory plant response rating [11, 29]
